In US11311538B2, “Compositions and methods for targeting cancers” (YALE UNIVERSITY, priority 2018, dated 2022):

System: poly-ADP-ribose (PAR)
Assay: Western blot of PAR levels in xenograft tumors
Format: in vivo, mouse
Details: 24 h post treatment (FIGS. 9A-9B)
Procedure: Western Blot analyses. Western blot analysis of protein levels was conducted by loading 30 μg of whole cell lysate onto a 4-20% polyacrylamide gel. Total protein was transferred to a nitrocellulose membrane. After blocking with 5% milk, membranes were incubated with primary antibodies. Antibodies used were: Rabbit monoclonal anti-Fumarase (D9C5,Cell Signaling Technologies) 1:1000 in 5% BSA, mouse monoclonal anti-SDHB (21A11AE7, Abcam) 1:1000 in % 5 milk, mouse monoclonal anti-Vinculin (SPM227, Abcam) 1:1000 in 5% milk, rabbit polyclonal anti-Histone 3 Lysine 36 trimethyl (9050, Abcam) 1:500 in 5% BSA, anti-Histone 3 Lysine 9 trimethyl (D4W1U, Cell Signaling Technologies) 1:1000 in 5% BSA, mouse monoclonal anti-Beta Actin (60008, Protein Tech) 1:5000 5% milk, rabbit Polyclonal anti-Histone H3 (ab1791, Abcam 1:5000 5% BSA), rabbit Polyclonal anti-PAR (4336-BPC-100, Trevigen) 1:5000 5% BSA, mouse monoclonal anti-GAPDH (60004 Protein Tech) 1:5000 5% milk, mouse monoclonal anti-BRCA2 (ab1, Millipore, 1:1000 5% Milk), mouse monoclonal anti-BRCA1 (D-9, Santa Cruz, 1:200 5% milk), mouse monoclonal anti-RAD51(14B4 Novus bio, 1:1000 5% milk). Patient sample blots were reprobed. […] Doxycycline induced knockdown was monitored by western blot as well as by RFP fluorescence from the internal and dox-inducible reporter on the TRIPZ construct. […]

`Cn1ncnc1[C@H]1c2n[nH]c(=O)c3cc(F)cc(c23)N[C@@H]1c1ccc(F)cc1` [BMN-673, BMN-673 (Talazoparib)] was tested, and the “PAR levels by western blot, SDHB knockdown vs shCTRL tumors” value was “reduced to the same extent”.
